Test results: patent publication US12162848B2, “Inhibitors of protein tyrosine phosphatase, compositions, and methods of use” (BRISTOL-MYERS SQUIBB COMPANY, priority 2022, dated 2024)

How the values were obtained:
PTPN2 enzyme = molecular target: T1, PTPN2 enzyme (Homo sapiens, UniProt P17706); test: PhosphoSens PTPN2 biochemical assay; settings: substrate AQT0264 20 μM, room temperature; read-out: PTPN2 BCHEM IC50
T1 sequence (P17706 1-415): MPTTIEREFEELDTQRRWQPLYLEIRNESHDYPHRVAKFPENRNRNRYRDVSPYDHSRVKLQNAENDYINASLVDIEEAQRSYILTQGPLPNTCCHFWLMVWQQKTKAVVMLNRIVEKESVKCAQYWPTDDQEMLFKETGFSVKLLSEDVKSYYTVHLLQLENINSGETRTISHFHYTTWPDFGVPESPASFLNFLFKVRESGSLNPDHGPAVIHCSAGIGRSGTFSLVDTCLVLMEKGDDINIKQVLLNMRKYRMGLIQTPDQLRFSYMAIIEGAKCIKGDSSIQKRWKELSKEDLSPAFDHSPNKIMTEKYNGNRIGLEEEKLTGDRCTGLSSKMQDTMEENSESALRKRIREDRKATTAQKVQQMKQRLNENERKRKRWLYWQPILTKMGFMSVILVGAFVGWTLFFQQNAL
Method in brief: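 PhosphoSens fluorescence format with 20 μM final AQT0264 substrate and […] in 50 mM HEPES pH 7.5, 500 μM EGTA, […], 0.01% Brij-35, 1% glycerol, 1 mM DTT, 0.2 mg/mL BSA. Compounds in 3-fold dilution series; progress curves read (ex 360/em 480 nm) every 71 s for 1 h at room temperature.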

[1] = system: phosphorylated STAT1 protein levels in B16-F10 cells; test: Phospho-STAT1 (Tyr701) HTRF assay in IFN-gamma treated B16-F10 cells; type: cell-based; settings: mouse IFN-gamma 100 ng/mL, 1 hour, read-out: pSTAT1 HTRF B16 EC50
Method in brief: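 Mouse B16-F10 cells, 10,000/well, pretreated 1 h with compound (0.15% DMSO), then stimulated with mouse IFN-gamma at 100 ng/mL final for 1 h at 37 C. Phospho-STAT1 (Tyr701) measured by HTRF.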

B16-F10 cells = test: Cell proliferation assay (CellTiter-Glo) in IFN-gamma treated B16-F10 cells; type: cell-based; settings: 120 h, mouse IFN-gamma 10 ng/mL, read-out: PTPN2 Prolif 5d B16F10 EC50

SMILES | IC50 (PTPN2 enzyme) | EC50 [1] | EC50 (B16-F10 cells)
COCCN1CCC(Nc2cc(O)c(N3CC(=O)NS3(=O)=O)c(F)c2)CC1 [EXAMPLE 90, 5-(2-fluoro-6-hydroxy-4-((1-(2-methoxyethyl)piperidin-4-yl)amino)phenyl)-1,2,5-thiadiazolidin-3-one 1,1-dioxide] | 2.13 µM | ≥ 15 µM | ≥ 15 µM
COCCN1CCN(c2cc(O)c(N3CC(=O)NS3(=O)=O)c(F)c2)CC1 [EXAMPLE 86, 5-(2-fluoro-6-hydroxy-4-(4-(2-methoxyethyl)piperazin-1-yl)phenyl)-1,2,5-thiadiazolidin-3-one 1,1-dioxide] | 0.336 µM | ≥ 15 µM | ≥ 15 µM
CC(C)CC(=O)N1CCN(Cc2cc(O)c(N3CC(=O)NS3(=O)=O)c(F)c2)CC1 [EXAMPLE 36, 5-(2-fluoro-6-hydroxy-4-((4-(3-methylbutanoyl)piperazin-1-yl)methyl)phenyl)-1,2,5-thiadiazolidin-3-one 1,1-dioxide] | 0.079 µM | ≥ 15 µM | ≥ 15 µM
CS(=O)(=O)N1CCC[C@@H](NCc2cc(O)c(N3CC(=O)NS3(=O)=O)c(F)c2)C1 [EXAMPLE 72, 5-[2-fluoro-6-hydroxy-4-[[[(3R)-1-methylsulfonyl-3-piperidyl]amino]methyl]phenyl]-1,1-dioxo-1,2,5-thiadiazolidin-3-one] | 0.054 µM | 3.56 µM | 4.69 µM
O=C1CN(c2c(O)cc(CNc3cc(F)ccc3Cl)cc2F)S(=O)(=O)N1 [EXAMPLE 80, 5-[4-[(2-chloro-5-fluoro-anilino)methyl]-2-fluoro-6-hydroxy-phenyl]-1,1-dioxo-1,2,5-thiadiazolidin-3-one] | 0.05 µM | ≥ 15 µM | ≥ 15 µM
CN1CCC(c2ccc(O)c(N3CC(=O)NS3(=O)=O)c2F)CC1 [EXAMPLE 106, 5-(2-fluoro-6-hydroxy-3-(1-methylpiperidin-4-yl)phenyl)-1,2,5-thiadiazolidin-3-one 1,1-dioxide] | 4.47 µM | ≥ 15 µM | ≥ 15 µM
CNC(=O)[C@H]1CC[C@H](NCc2cc(O)c(N3CC(=O)NS3(=O)=O)c(F)c2)CC1 [EXAMPLE 58, (1r,4r)-4-((4-(1,1-dioxido-4-oxo-1,2,5-thiadiazolidin-2-yl)-3-fluoro-5-hydroxybenzyl)amino)-N-methylcyclohexane-1-carboxamide] | 0.376 µM | 5.08 µM | ≥ 15 µM
O=C1CN(c2c(O)cc(CN[C@H]3CCCOC3)cc2F)S(=O)(=O)N1 [EXAMPLE 67, (S)-5-(2-fluoro-6-hydroxy-4-(((tetrahydro-2H-pyran-3-yl)amino)methyl)phenyl)-1,2,5-thiadiazolidin-3-one 1,1-dioxide] | 0.126 µM | 2.69 µM | 1.67 µM
